One assay deals with HCV NS3/4A D168E PR (Hepatitis C virus subtype 1a, UniProt A8DG50, A1066T/D1194E/I1043Q/I1044E/L1039E/L1040E/L1047Q/S1165A, form not given). The assay is described as follows: Octet RED384 simeprevir affinity. It is filed as binding. How it is done: (§1) The biotinylated HCV NS3/4A PR (S139A), HCV NS3/4A K136D PR, HCV NS3/4A K136N PR and HCV NS3/4A D168E PR were loaded on High Precision Streptavidin (SAX) biosensors at a concentration of 2 μg/ml in 10 mM Hepes pH 7.4, 150 mM NaCl, 0.05% Surfactant P20, 0.3% DMSO. The simeprevir was diluted […] (46.88-3,000 nM) in the same buffer and the loaded biosensors were dipped into the simeprevir samples for 180 sec to measure the association. For the dissociation the biosensors were dipped into the buffer for 600 sec. The traces were analysed using ForteBio Data Analysis software and fit globally using a 1:1 binding model.

Another assay has as its target HCV NS3/4A K136D PR (Hepatitis C virus subtype 1a, UniProt A8DG50, A1066T/I1043Q/I1044E/K1162D/L1039E/L1040E/L1047Q/S1165A, form not given). The assay is described as follows: Octet RED384 simeprevir affinity. It is filed as binding. How it is done:
as §1

A further assay has as its target HCV NS3/4A K136N PR (Hepatitis C virus subtype 1a, UniProt A8DG50, A1066T/I1043Q/I1044E/K1162N/L1039E/L1040E/L1047Q/S1165A, form not given). The experiment in a line: Octet RED384 simeprevir affinity. It is filed as binding. How it is done: as §1
A further assay addresses HCV NS3/4A PR (S139A) (Hepatitis C virus subtype 1a, UniProt A8DG50, A1066T/I1043Q/I1044E/L1039E/L1040E/L1047Q/S1165A, form not given). The assay is described as follows: Octet RED384 simeprevir affinity. The class given is binding. Particulars: WT (S139A). How it is done: as §1
Assay [1] concerns iPSC single-cell clones with B2M-targeted kill switch. The experiment in a line: Real-time cell analysis (RTCA) of kill switch activity in iPS cells. It is filed as cell-based, human. The conditions noted are these: 1 nM simeprevir. An excerpt:
A stable induced pluripotency stem cell (iPSC) line (a single clone (B-3/1F1) derived from the fibroblast cells of a healthy human donor from Research Specimen Collection Program of Astrazeneca) stably expressing the simeprevir-inducible kill switch was generated using CRISPR/Cas9 technology, using AAV-encoded DNA as template for targeted integration into the β2 microglobulin (B2M) locus.
The donor construct (FIG. 33A) encoding the PRSIM-based kill switch (SEQ ID 223) was synthesized and purchased from GenScript, Inc. and was subcloned into an AAV shuttle plasmid backbone. The donor construct was packaged into adeno-associated viral (AAV) particles; briefly, the donor plasmid was co-transfected with two helper plasmids, pAd5Helper and pR2C6, encoding adenoviral components essential for AAV replication and AAV2 replication (rep)/AAV6 capsid (cap) proteins respectively. After 72 hours, the cells were collected and were disrupted by freeze-thawing. The cell lysate was digested with Benzonase (100 U/ml) for 1 hour at 37° C. and were centrifugated. The vector-containing supernatant was collected and applied to Iodixanol gradient followed by ultracentrifugation. After ultracentrifugation, the vector containing solution was collected and washed with 20 mL PBS in a centrifugal concentrator tube for 3 times. Finally, the solution was concentrated to 1 mL. […]

The structures appear in SMILES notation.

For `COc1ccc2c(O[C@@H]3C[C@H]4C(=O)N[C@]5(C(=O)NS(=O)(=O)C6CC6)C[C@H]5/C=C\CCCCN(C)C(=O)[C@@H]4C3)cc(-c3nc(C(C)C)cs3)nc2c1C` [simeprevir], the Kd was 33 nM at HCV NS3/4A D168E PR, 62.6 nM at HCV NS3/4A K136D PR, 31.5 nM at HCV NS3/4A K136N PR and 17.8 nM at HCV NS3/4A PR (S139A). Besides, the “decreased simeprevir affinity compared to ‘WT’ (S139A)” value is recorded as about 2 fold on HCV NS3/4A D168E PR, about 3.5 fold at HCV NS3/4A K136D PR and about 2 fold at HCV NS3/4A K136N PR. Besides, the koff was determined as 0.000665 s⁻¹ on HCV NS3/4A D168E PR, 0.00234 s⁻¹ on HCV NS3/4A K136D PR, 0.00107 s⁻¹ on HCV NS3/4A K136N PR and 0.000495 s⁻¹ on HCV NS3/4A PR (S139A). In addition, the kon was 20000 M⁻¹ s⁻¹ on HCV NS3/4A D168E PR, 36200 M⁻¹ s⁻¹ on HCV NS3/4A K136D PR, 33800 M⁻¹ s⁻¹ on HCV NS3/4A K136N PR and 27800 M⁻¹ s⁻¹ on HCV NS3/4A PR (S139A). Moreover, the cell proliferation index result is on record as “dramatic reduction in cell proliferation index after 5 hours” in assay [1] (clones encoding the kill switch) and “continued to proliferate” in assay [1] (parental iPSC cells).

The values above are taken from patent US20220380801A1, “TRIPARTITE SYSTEMS FOR PROTEIN DIMERIZATION AND METHODS OF USE” (priority 2019, published 2022).
